Assay results published in US20250188069A1, “COMPOUNDS AND METHODS FOR DEGRADING CASEIN KINASE 1 ALPHA” (PIN THERAPEUTICS, INC., priority 2022, published 2025).

Key:
Format in all cases: cell-based
[1] = target: T1, CK1α (Homo sapiens, UniProt P48729+Q96SW2); assay: CK1α degradation, flow cytometry in MV4-11 cells; set-up: CK1α levels were determined in MV-4-11 cells using Jess (Protein Simple); host or cells: MV-4-11; settings: % reduction of CK1α compared to DMSO, MV4-11 cells at 316 nM for 16 hours, read-out: CK1α degradation classification
[2] = test system: MV-4-11 cells; assay: AML cell viability assay (RealTime-Glo); settings: Homo sapiens, MV4-11; IC50 class; MV-4-11 cells, RealTime-Glo after 44 hrs of treatment (TABLE 3); read-out: Cell viability classification
[3] = target: T1, CK1α; assay: CK1α HiBiT assay in CK1a_HiBiT_Jurkat cells; settings: DC50 class, 16 hours, Nano-Glo HiBiT Lytic Detection, read-out: CK1α degradation classification
Procedure: CK1a_HiBiT_Jurkat cells were culture in RPMI 1640 medium (Gibco, 11875093) with 10% FBS under standard tissue culture conditions. Briefly, Compounds of the present disclosure was added to 30,000 cells in a white 96-well plate (9-point dose response, top concentration […], half-log serial dilution, final DMSO concentration 0.5%) and incubated for 16 hours. CK1a level was determined in along with the Nano-Glo HiBiT Lytic Detection system [Promega N3050] with final concentration of 1 x. The luminescence was normalized to that of DMSO-treated samples. DC50 values were obtained using three-parameter non-linear regressions using Prism (GraphPad). The compounds are classified based on DC50 values as follows. • A: DC50 is less than or equal to 1×10^−7; • B: DC50 is greater than 1×10^−7 & less than or equal to 1×10^−6; • C: DC50 is greater than 1×10^−6; • NA: not calculated (no activity detected, <25% viability reduction at 1 uM)

T1 sequence (P48729 whole entry): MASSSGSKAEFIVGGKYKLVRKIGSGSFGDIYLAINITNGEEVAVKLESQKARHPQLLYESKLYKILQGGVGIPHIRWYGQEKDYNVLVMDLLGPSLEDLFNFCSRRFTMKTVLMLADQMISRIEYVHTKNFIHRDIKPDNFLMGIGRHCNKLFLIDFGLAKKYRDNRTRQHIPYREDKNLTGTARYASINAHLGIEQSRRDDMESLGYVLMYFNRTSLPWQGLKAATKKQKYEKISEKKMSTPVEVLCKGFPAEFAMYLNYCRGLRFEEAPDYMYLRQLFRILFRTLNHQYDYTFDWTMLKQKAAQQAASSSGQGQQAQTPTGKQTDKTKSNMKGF
T1 sequence (Q96SW2 whole entry): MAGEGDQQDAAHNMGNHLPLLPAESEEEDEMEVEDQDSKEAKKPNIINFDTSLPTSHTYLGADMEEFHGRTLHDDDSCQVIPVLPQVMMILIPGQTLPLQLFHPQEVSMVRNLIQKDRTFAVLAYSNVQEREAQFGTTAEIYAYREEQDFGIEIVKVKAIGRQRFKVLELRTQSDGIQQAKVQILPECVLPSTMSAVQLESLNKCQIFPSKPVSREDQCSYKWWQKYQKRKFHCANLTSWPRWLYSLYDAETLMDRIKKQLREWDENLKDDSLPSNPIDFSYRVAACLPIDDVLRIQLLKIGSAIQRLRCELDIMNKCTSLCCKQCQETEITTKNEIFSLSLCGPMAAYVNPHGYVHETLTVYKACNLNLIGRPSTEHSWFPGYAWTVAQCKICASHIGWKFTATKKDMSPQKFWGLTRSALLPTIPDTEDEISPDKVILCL
T1 sequence (Q16531 whole entry partner): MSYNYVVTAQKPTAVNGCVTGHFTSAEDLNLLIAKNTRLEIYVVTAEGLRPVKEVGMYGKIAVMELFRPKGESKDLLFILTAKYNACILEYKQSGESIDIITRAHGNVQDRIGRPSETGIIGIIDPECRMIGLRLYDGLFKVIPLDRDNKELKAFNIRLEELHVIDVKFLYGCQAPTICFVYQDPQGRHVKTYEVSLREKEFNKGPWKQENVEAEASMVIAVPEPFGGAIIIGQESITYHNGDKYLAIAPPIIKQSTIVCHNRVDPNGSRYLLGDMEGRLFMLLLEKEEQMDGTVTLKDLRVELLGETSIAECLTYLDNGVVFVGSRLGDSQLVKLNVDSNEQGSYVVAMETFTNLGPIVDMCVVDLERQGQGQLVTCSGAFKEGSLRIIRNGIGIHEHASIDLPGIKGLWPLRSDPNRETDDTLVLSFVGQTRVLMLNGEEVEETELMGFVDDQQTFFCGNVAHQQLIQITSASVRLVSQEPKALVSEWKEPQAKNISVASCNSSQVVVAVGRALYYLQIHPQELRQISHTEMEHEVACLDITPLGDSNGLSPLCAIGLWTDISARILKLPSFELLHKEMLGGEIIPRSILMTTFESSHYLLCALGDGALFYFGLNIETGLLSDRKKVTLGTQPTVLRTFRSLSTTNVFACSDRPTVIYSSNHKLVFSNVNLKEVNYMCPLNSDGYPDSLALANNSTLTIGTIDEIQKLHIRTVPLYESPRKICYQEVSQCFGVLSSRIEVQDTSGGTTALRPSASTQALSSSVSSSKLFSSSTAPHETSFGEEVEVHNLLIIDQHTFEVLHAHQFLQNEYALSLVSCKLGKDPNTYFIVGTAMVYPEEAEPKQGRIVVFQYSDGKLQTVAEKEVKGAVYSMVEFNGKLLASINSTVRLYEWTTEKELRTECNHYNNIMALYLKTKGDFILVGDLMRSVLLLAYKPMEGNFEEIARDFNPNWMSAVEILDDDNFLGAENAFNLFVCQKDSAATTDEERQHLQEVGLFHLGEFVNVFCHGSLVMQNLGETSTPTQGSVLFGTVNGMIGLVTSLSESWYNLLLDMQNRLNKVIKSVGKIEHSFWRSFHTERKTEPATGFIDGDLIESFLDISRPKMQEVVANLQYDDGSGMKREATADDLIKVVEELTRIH

Row | Structure (SMILES) | Dmax at 0.316 µM [1] [%] | IC50 [2] [nM] | DC50 [3] [nM]
1 | COC(C)(C)CN[C@H]1CC[C@@H](N(CCC2CC2)c2cccc3c2CN(C2CCC(=O)NC2=O)C3=O)CC1 (some centres unmarked) [Compound 541A, 3-(4-((2-cyclopropylethyl)((1s,4s)-4-((2-methoxy-2-methylpropyl)amino)cyclohexyl)amino)-1-oxoisoindolin-2-yl)piperidine-2,6-dione] | 50 to 75 | 100 to 1000 | –
2 | COCCN[C@H]1CC[C@H](N(CCC2CC2)c2cccc3c2CN(C2CCC(=O)NC2=O)C3=O)CC1 (some centres unmarked) [Compound 542, 3-{4-[(2-cyclopropylethyl)[(1r,4r)-4-[(2-methoxyethyl)amino]cyclohexyl]amino]-1-oxo-3H-isoindol-2-yl}piperidine-2,6-dione] | > 75 | < 100 | –
3 | N#CCCCN[C@H]1CC[C@H](N(CCC2CC2)c2cccc3c2CN(C2CCC(=O)NC2=O)C3=O)CC1 (some centres unmarked) [Compound 543, 4-{[(1r,4r)-4-[(2-cyclopropylethyl)[2-(2,6-dioxopiperidin-3-yl)-1-oxo-3H-isoindol-4-yl]amino]cyclohexyl]amino}butanenitrile] | > 75 | < 100 | –
4 | O=C1CCC(N2Cc3c(cccc3N(CCC3CC3)[C@H]3CC[C@H](NCC(=O)N4CCC4)CC3)C2=O)C(=O)N1 (some centres unmarked) [Compound 546, 3-{4-[(2-cyclopropylethyl)[(1r,4r)-4-{[2-(azetidin-1-yl)-2-oxoethyl]amino}cyclohexyl]amino]-1-oxo-3H-isoindol-2-yl}piperidine-2,6 dione] | > 75 | < 100 | –

Further lines, results first:

Row | Dmax at 0.316 µM [1] [%] | IC50 [2] [nM] | DC50 [3] [nM] | Structure (SMILES)
5 | > 75 | < 100 | – | CC(CC(F)(F)F)N[C@H]1CC[C@H](N(CCC2CC2)c2cccc3c2CN(C2CCC(=O)NC2=O)C3=O)CC1 (some centres unmarked) [Compound 547, 3-{4-[(2-cyclopropylethyl)[(1r,4r)-4-[(4,4,4-trifluorobutan-2-yl)amino]cyclohexyl]amino]-1-oxo-3H-isoindol-2-yl}piperidine-2,6-dione]
6 | < 50 | 100 to 1000 | – | C[C@@H](N[C@H]1CC[C@H](N(CCC2CC2)c2cccc3c2CN(C2CCC(=O)NC2=O)C3=O)CC1)C(F)(F)F (stereo partly drawn) [Compound 548, 3-(4-((2-cyclopropylethyl)((1r,4r)-4-(((R)-1,1,1-trifluoropropan-2-yl)amino)cyclohexyl)amino)-1-oxoisoindolin-2-yl)piperidine-2,6-dione]
7 | 50 to 75 | 100 to 1000 | – | C[C@@H](N[C@H]1CC[C@@H](N(CCC2CC2)c2cccc3c2CN(C2CCC(=O)NC2=O)C3=O)CC1)C(F)(F)F (stereo partly drawn) [Compound 548A, 3-(4-((2-cyclopropylethyl)((1s,4s)-4-(((R)-1,1,1-trifluoropropan-2-yl)amino)cyclohexyl)amino)-1-oxoisoindolin-2-yl)piperidine-2,6-dione]
8 | – | – | > 1000 | O=C1CCC(N2Cc3c(cccc3N(CC3CC(F)(F)C3)[C@H]3CC[C@@H](NCCC(F)(F)F)CC3)C2=O)C(=O)N1 (some centres unmarked) [Compound 650A, 3-(4-{[(3,3-difluorocyclobutyl)methyl][(1s,4s)-4-[(3,3,3-trifluoropropyl)amino]cyclohexyl]amino}-1-oxo-3H-isoindol-2-yl)piperidine-2,6-dione]
9 | – | – | > 1000 | O=C1CCC(N2Cc3c(cccc3N(CC3CC(F)(F)C3)[C@H]3CC[C@@H](NCC4(C(F)(F)F)CC4)CC3)C2=O)C(=O)N1 (some centres unmarked) [Compound 655A, 3-(4-{[(3,3-difluorocyclobutyl)methyl][(1s,4s)-4-({[1-(trifluoromethyl)cyclopropyl]methyl}amino)cyclohexyl]amino}-1-oxo-3H-isoindol-2-yl)piperidine-2,6-dione]
10 | – | – | > 1000 | O=C1CCC(N2Cc3c(cccc3N(CC3CC4(CCC4)C3)[C@H]3CC[C@@H](NCC4(C(F)(F)F)CC4)CC3)C2=O)C(=O)N1 (some centres unmarked) [Compound 656A, 3-(1-oxo-4-{[(1s,4s)-4-({[1-(trifluoromethyl)cyclopropyl]methyl}amino)cyclohexyl]({spiro[3.3]heptan-2-ylmethyl})amino}-3H-isoindol-2-yl)piperidine-2,6-dione; trifluoroacetic acid]
